This test has as its target T1, thrombin (THR) (Homo sapiens, UniProt P00734).
T1 construct: gene F2
As to the kind of experiment: capillary electrophoresis immobilized enzyme microreactor, S-2238; percent inhibition at […]. The format is biochemical. Conditions: read-out: Inhibition percentage (%).

The values that follow come from publication PMC7457533, “Characterization of thrombin/factor Xa inhibitors in Rhizoma Chuanxiong through UPLC-MS-based multivariate statistical analysis” (Chinese Medicine, 2020).

With `CCCCC1OC(=O)C2=C1CCC=C2` (centres unmarked) [a, Senkyunolide A], the inhibition at 500 µM was 41.9 ± 1.84%. The same measure for `CCC/C=C1\OC(=O)C2=C1CCC=C2` [d, Z-ligustilide]: 36.9 ± 2.37%.

For orientation: inhibition means how much of the control response was suppressed.
